Test results reported in patent US20220370467A1, “USING OF A PPAR-DELTA AGONIST IN THE TREATMENT OF KIDNEY DISEASE” (Reneo Pharmaceuticals, Inc., priority 2019, published 2022).

Tested on: inbred 129S1 Col4a3−/− mice
Assay: Mouse Alport model of kidney fibrosis, Study 2
Assay type: in vivo
Excerpt: Mice with mutations in one of the collagen IV genes of glomerular basement membrane collagen, Collagen IV-α3/α4/α5, have defects in glomerular function with development of kidney fibrosis. These mice develop renal dysfunction and die prematurely of renal failure with specific timing dependent on the strain background upon which the mutation is present.
Generation of Col4a3^−/−mice was as described in Miner, J. H., and Sanes, J. R. (1996), J. Cell Biol. 135:1403-1413. Studies of Compound 1 efficacy in Alport models of kidney fibrosis were performed using mice on two different strain backgrounds. Study 1 used B 6129S1 F1 hybrid Alport mice that usually reach end stage renal disease (ESRD) at about 17 to 19 weeks. These were generated by crosses between C57BL6/J (B 6) and 129S1/Sv1mJ (129S1) Alport mice. Study 2 used inbred 129S1 Col4a3^−/− mice, which usually reach ESRD at about 11 to 13 weeks. […]
Urine and blood samples were collected at the time points of 12, 15, and 17-weeks of age for B6129S1 hybrid Col4a3^+/−, −/− mice and at 8 and 10-weeks of age for inbred 129S1 Col4a3^−/− mice. Urinary protein concentration was determined by Bradford assay (Cat. 5000006, Bio-Rad) and comparison with bovine serum albumin standards. Urinary creatinine was measured by QuantiChrom™ Creatinine Assay Kit (Cat.DICT-500, BioAssay systems) and used to normalize the amount of urine. Blood urea nitrogen (BUN) levels were measured by QuantiChrom™ Urea Assay Kit (Cat.DUR2-100, BioAssay systems). Urine and blood samples were stored at −20° C. and −80° C. respectively after collection and subsequently analyzed.
For biochemistry, kidneys were collected from 15 and 17-week old B 6129S1 hybridCol4a3^+/−, −/− mice; and from 8 and 10-week old inbred 129S1 Col4a3^−/− mice. […] Protein concentration was measured by BCA assays (Cat. 23227, ThermoFisher). […]
All data are presented as mean±SEM. Statistical significance was determined by Oneway ANOVA with Dunnett's multiple comparison for more than three group comparison and Student's t test for two group comparison. […]

[1] = 3 or 10 mg/kg i.p. once a day, samples at 8 and 10-weeks of age, data not shown

Cc1cc(OC/C=C(/c2ccc(F)cc2)c2ccc(C#CCN3CCOCC3)cc2)ccc1OCC(=O)O [Compound 1, (E)-[4-[3-(4-Fluorophenyl)-3-[4-[3-(morpholin-4-yl)propynyl]phenyl]allyloxy]-2-methyl-phenoxy]acetic acid]
kidney dysfunction (3 or 10 mg/kg i.p. once a day from 4 to 10-weeks of age): did not attenuate
BUN [1]: did not result in any significant reduction
proteinuria [1]: did not result in any significant reduction
